Data from patent US12054463B2, “Radiolabeled microtubule imaging compounds and uses thereof” (The Trustees of Columbia University in the City of New York, priority 2017, dated 2024).
“Also recorded” adds a separate entry of the source.

Key:
α2A = α2A (Homo sapiens, UniProt P08913); assay: Affinity to brain targets (panel); assay type: binding
NK = assay: Affinity to brain targets (panel); assay type: binding; conditions: NK: neurokinin
NT = assay: Affinity to brain targets (panel); assay type: binding; conditions: NT: neurotrophin
5-HT2B = 5-HT2B (Homo sapiens, UniProt P41595); assay: Affinity to brain targets (panel); assay type: binding
Sequence of 5-HT2B (P41595 whole entry, species assumed): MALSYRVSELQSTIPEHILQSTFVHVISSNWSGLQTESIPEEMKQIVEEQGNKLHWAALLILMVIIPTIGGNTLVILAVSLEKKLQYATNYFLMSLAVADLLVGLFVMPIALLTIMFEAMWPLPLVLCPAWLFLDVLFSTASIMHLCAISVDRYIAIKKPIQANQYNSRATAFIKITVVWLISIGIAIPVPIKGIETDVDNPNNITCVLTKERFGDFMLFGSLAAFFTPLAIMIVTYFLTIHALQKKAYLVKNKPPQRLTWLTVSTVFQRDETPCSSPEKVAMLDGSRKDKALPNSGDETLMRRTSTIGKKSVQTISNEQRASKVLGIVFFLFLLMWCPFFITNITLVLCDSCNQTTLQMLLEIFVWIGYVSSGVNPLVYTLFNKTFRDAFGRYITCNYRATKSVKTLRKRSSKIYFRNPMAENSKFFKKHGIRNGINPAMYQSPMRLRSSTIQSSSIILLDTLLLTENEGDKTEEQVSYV

5-HT2A = 5-HT2A (Homo sapiens, UniProt P28223); assay: Affinity to brain targets (panel); assay type: binding
H3, H4 = assay: Affinity to brain targets (panel); assay type: binding; conditions: H3, H4: histamine
Sigma1 = Sigma1 (Homo sapiens, UniProt Q99720); assay: Affinity to brain targets (panel); assay type: binding
Sequence of Sigma1 (Q99720 whole entry): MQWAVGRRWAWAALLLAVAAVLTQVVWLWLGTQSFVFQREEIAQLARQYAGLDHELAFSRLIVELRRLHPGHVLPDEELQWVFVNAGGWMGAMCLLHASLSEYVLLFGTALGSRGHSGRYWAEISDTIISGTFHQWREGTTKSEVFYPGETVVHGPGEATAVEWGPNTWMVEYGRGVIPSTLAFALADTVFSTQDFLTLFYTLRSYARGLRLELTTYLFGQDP

α2B = α2B (Homo sapiens, UniProt P18089); assay: Affinity to brain targets (panel); assay type: binding
Sequence of α2B (P18089 whole entry): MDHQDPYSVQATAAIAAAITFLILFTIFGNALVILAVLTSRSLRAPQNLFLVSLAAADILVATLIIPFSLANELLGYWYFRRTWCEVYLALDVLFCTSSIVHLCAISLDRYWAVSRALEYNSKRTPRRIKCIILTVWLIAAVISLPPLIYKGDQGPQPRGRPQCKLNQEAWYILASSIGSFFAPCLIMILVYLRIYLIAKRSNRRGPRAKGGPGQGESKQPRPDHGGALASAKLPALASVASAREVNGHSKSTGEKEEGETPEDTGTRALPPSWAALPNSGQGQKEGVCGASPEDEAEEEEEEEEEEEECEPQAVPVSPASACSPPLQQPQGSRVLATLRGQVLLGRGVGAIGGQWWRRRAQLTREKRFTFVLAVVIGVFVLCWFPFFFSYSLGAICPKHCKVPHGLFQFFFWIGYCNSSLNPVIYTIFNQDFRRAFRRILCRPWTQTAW

V1-2 = assay: Affinity to brain targets (panel); assay type: binding; conditions: V1-2: vasopressin
β3 = β3 (Homo sapiens, UniProt P13945); assay: Affinity to brain targets (panel); assay type: binding
β2 = β2 (Homo sapiens, UniProt P07550); assay: Affinity to brain targets (panel); assay type: binding
Sequence of β2 (P07550 whole entry): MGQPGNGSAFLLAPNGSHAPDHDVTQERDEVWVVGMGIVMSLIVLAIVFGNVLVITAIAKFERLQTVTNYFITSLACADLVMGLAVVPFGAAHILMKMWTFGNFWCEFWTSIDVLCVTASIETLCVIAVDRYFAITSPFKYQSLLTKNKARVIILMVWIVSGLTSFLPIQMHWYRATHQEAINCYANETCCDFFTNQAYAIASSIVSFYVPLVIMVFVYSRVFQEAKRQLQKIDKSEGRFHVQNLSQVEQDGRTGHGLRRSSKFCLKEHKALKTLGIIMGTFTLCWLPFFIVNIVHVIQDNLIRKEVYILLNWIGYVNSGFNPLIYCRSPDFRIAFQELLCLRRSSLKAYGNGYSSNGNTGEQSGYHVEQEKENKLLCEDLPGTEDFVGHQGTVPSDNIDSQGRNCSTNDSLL

EP = assay: Affinity to brain targets (panel); assay type: binding; conditions: EP: prostanoid receptors
5-HT3 = 5-HT3 (Homo sapiens, UniProt P46098); assay: Affinity to brain targets (panel); assay type: binding
H2 = H2 (Homo sapiens, UniProt P25021); assay: Affinity to brain targets (panel); assay type: binding; conditions: H2: histamine
Sequence of H2 (P25021 whole entry): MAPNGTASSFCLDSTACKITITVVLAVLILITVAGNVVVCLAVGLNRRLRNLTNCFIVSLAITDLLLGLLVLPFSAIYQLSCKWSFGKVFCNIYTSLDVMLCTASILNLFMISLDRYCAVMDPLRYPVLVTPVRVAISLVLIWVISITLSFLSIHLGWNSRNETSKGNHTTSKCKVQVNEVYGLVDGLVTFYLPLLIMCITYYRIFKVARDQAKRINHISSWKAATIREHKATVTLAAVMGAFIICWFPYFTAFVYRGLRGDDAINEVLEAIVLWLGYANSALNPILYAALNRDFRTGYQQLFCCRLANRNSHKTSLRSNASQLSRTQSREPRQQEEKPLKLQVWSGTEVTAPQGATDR

α1A-1C = assay: Affinity to brain targets (panel); assay type: binding
β1 = β1 (Homo sapiens, UniProt P08588); assay: Affinity to brain targets (panel); assay type: binding
NMDA = assay: Affinity to brain targets (panel); assay type: binding
mGluR = assay: Affinity to brain targets (panel); assay type: binding; conditions: mGluR (mGluRs): metabotropic glutamate receptors
M = assay: Affinity to brain targets (panel); assay type: binding; conditions: M: muscarinic
5-HT1B = 5-HT1B (Homo sapiens, UniProt P28222); assay: Affinity to brain targets (panel); assay type: binding
I = assay: Affinity to brain targets (panel); assay type: binding
D4 = D4 (Homo sapiens, UniProt P21917); assay: Affinity to brain targets (panel); assay type: binding; conditions: D4: dopamine
5-HT1A = 5-HT1A (Homo sapiens, UniProt P08908); assay: Affinity to brain targets (panel); assay type: binding
5-HT2C = 5-HT2C (Homo sapiens, UniProt P28335); assay: Affinity to brain targets (panel); assay type: binding
variety of brain targets = assay: Affinity for a variety of brain targets; assay type: binding; conditions: variety of brain targets (Table 1), except H4R
D3 = D3 (Homo sapiens, UniProt P35462); assay: Affinity to brain targets (panel); assay type: binding; conditions: D3: dopamine
VMAT = assay: Affinity to brain targets (panel); assay type: binding; conditions: VMAT (VMAT 1,2): vesicular monoamine transporter
KA = assay: Affinity to brain targets (panel); assay type: binding; conditions: KA (KAR): Kainate
Adenosine = assay: Affinity to brain targets (panel); assay type: binding; conditions: Adenosine (A)
Na+ Channel = assay: Affinity to brain targets (panel); assay type: binding
PKC = assay: Affinity to brain targets (panel); assay type: binding; conditions: PKC: Protein kinase C
CB2 = CB2 (Homo sapiens, UniProt P34972); assay: Affinity to brain targets (panel); assay type: binding; conditions: CB2: cannabinoid
Sequence of CB2 (P34972 whole entry, species assumed): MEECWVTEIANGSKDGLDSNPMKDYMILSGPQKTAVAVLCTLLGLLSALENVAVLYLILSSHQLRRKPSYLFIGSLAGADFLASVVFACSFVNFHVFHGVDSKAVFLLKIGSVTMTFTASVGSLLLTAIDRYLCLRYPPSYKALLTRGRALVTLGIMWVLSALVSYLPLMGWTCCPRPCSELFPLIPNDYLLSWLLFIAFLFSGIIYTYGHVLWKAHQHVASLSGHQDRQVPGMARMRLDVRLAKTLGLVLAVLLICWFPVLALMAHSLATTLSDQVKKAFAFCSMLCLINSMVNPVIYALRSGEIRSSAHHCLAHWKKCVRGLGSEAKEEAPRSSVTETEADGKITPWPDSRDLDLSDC

5-HT1D = 5-HT1D (Homo sapiens, UniProt P28221); assay: Affinity to brain targets (panel); assay type: binding
panel of kinases = conditions: cited from earlier work
Ca++ channel = assay: Affinity to brain targets (panel); assay type: binding
CB1 = CB1 (Homo sapiens, UniProt P21554); assay: Affinity to brain targets (panel); assay type: binding; conditions: CB1: cannabinoid
α2C = α2C (Homo sapiens, UniProt P18825); assay: Affinity to brain targets (panel); assay type: binding
Sequence of α2C (P18825 whole entry): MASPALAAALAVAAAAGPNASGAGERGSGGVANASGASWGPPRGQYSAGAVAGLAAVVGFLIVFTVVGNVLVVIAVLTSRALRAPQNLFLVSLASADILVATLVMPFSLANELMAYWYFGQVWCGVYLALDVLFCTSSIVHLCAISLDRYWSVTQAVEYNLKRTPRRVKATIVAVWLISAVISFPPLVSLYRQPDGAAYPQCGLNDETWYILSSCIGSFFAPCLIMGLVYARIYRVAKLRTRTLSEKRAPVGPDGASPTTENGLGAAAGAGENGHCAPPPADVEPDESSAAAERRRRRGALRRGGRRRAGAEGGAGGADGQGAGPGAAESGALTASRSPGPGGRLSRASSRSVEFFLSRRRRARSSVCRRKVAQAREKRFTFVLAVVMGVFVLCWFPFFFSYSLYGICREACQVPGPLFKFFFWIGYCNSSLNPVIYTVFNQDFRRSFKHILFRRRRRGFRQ

microtubules (MTs) = conditions: reference 9; cited from earlier work
BZP = assay: Affinity to brain targets (panel); assay type: binding; conditions: BZP: benzodiazepine
MOR = MOR (Homo sapiens, UniProt P35372); assay: Affinity to brain targets (panel); assay type: binding; conditions: MOR: mu opioid receptor
Sequence of MOR (P35372 whole entry): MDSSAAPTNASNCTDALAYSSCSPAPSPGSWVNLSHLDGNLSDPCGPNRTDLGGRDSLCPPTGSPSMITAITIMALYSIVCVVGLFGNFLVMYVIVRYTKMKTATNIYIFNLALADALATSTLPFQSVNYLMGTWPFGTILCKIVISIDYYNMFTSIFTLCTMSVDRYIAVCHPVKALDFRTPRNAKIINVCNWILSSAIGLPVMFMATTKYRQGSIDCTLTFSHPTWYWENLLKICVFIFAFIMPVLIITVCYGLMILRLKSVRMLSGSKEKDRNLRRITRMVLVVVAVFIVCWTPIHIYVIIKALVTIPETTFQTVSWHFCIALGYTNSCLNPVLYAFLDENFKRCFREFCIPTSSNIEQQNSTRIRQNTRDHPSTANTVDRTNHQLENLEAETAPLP

5-HT1E = 5-HT1E (Homo sapiens, UniProt P28566); assay: Affinity to brain targets (panel); assay type: binding
Sequence of 5-HT1E (P28566 whole entry, species assumed): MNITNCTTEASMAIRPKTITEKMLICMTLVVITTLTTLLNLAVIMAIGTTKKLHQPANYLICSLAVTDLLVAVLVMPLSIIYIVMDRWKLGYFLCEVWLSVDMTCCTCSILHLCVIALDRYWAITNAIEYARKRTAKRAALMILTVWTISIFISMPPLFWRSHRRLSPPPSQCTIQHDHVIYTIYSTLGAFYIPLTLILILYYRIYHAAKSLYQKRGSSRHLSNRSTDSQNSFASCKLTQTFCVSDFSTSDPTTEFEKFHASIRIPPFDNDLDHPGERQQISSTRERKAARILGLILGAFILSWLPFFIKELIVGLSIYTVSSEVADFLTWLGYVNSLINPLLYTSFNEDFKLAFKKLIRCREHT

AMPA = assay: Affinity to brain targets (panel); assay type: binding
GABA = assay: Affinity to brain targets (panel); assay type: binding
D5 = D5 (Homo sapiens, UniProt P21918); assay: Affinity to brain targets (panel); assay type: binding; conditions: D5: dopamine
Sequence of D5 (P21918 whole entry): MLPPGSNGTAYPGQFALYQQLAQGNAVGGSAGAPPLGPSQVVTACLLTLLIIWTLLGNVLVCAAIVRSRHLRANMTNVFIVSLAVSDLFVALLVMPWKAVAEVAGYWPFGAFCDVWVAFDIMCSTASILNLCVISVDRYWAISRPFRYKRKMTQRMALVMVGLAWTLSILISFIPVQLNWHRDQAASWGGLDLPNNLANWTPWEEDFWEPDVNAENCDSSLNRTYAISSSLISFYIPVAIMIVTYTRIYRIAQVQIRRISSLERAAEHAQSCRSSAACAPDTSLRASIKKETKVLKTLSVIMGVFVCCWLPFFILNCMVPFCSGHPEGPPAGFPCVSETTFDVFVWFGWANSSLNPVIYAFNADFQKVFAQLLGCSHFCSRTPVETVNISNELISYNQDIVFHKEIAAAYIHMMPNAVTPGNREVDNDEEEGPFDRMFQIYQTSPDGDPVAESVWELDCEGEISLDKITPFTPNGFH

5-HT7 = 5-HT7 (Homo sapiens, UniProt P34969); assay: Affinity to brain targets (panel); assay type: binding
Sequence of 5-HT7 (P34969 whole entry, species assumed): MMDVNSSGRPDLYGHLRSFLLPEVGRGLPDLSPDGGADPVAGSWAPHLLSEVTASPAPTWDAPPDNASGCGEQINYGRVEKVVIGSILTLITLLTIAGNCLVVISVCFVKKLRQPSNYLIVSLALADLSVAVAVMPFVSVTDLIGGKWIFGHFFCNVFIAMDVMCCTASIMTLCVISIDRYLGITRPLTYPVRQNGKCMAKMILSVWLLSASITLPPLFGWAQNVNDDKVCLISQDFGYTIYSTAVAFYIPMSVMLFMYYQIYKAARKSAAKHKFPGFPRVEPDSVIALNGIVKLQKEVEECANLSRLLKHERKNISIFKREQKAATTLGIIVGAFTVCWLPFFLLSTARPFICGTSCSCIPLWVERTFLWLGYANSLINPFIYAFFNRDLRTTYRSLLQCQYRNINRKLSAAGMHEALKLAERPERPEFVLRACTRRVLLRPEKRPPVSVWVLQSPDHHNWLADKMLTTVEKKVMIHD

D1, D2 = assay: Affinity to brain targets (panel); assay type: binding; conditions: D1, D2: dopamine
[1] = system: prostate cancer (PC3) cells; assay: In vitro cell uptake; assay type: cell-based
rat brain = assay: MicroPET in rat; assay type: in vivo
[2] = system: tau-overexpressing rTg4510 mice; assay: MicroPET in AD animal model rTg4510; assay type: in vivo; conditions: 9-month old
Source text: MicroPET studies with 9-month old, tau-overexpressing rTg4510 mice (Alzheimer disease-tau pathology) show ˜35% lower binding of [^11C]MPC-6827 brain activity in comparison to the control mice (FIGS. 12 and 13).

glioblastoma PDX cells = assay: In vitro cell uptake; assay type: cell-based
[3] = system: glioblastoma (GBM) U251 cells; assay: In vitro cell uptake; assay type: cell-based
brain MT [4] = assay: MicroPET in athymic nude male mice; assay type: in vivo
Protocol: (§1) Biodistribution of [^11C] […] The time-activity curves were expressed in g/mL normalized to the injected dose corrected for weight, to obtain standardized uptake values (SUVs). The brain SUV of [^11C] […] The heart, blood and muscles also show binding to [^11C] MPC-6827 and are consistent with known distribution of MTs in these organs. […] The lungs show higher uptake up to 30 minutes, followed by washout. 70% specific binding in brain was established at 30 minutes prior to the injection of radiotracer with 5 mg/kg MPC-6827 (FIG. 2) in mice.
Radioligand binding in thyroid gland, is also displaced during the blocking experiments.^21-23

MDA-MB-231 cells = assay: Cell uptake and blocking; assay type: cell-based
[5] = Stability in 5% ethanol-saline formulation; assay type: physicochemical
Protocol: (§2) The radiochemical synthesis of [^11C] MPC-6827 was optimized and automated on aGE-FX2MeI/FX2M radiochemistry module by alkylating the desmethyl-MPC6827 precursor (6) with [^11C] MeI in DMF using NaOH. [^11C] MPC-6827 was produced with a radiochemical yield (RCY) of 40%, in >99% radiochemical purity and a specific activity of 2+0.5 Ci/μmol (decay corrected to end of synthesis (EOS)). The radioligand was stable in 5% ethanol-saline formulation for 4 h and the log Poct/wat was estimated as 3.8 by shake flask method.

[6] = log Poct/wat by shake flask method; assay type: physicochemical; conditions: octanol/water
Protocol: as §2

[7] = system: amyloid overexpressing 5×FAD-AD mice; assay: MicroPET in AD animal model 5×FAD; assay type: in vivo; conditions: 15 month-old
Source text: In vivo imaging of [^11C]MPC-6827 in amyloid overexpressing 5×FAD-AD mice (15 month-old) show 40% lower binding of radiotracer in the whole brain model in comparison to the wild type controls (FIGS. 10 and 11). The tracer binding in frontal and mid brain regions show significant lower binding than whole brain in comparison to wild type mice.

brain MT [8] = assay: Biodistribution in white male mice; assay type: in vivo
Protocol: as §1

Sequence of α2A (P08913 whole entry): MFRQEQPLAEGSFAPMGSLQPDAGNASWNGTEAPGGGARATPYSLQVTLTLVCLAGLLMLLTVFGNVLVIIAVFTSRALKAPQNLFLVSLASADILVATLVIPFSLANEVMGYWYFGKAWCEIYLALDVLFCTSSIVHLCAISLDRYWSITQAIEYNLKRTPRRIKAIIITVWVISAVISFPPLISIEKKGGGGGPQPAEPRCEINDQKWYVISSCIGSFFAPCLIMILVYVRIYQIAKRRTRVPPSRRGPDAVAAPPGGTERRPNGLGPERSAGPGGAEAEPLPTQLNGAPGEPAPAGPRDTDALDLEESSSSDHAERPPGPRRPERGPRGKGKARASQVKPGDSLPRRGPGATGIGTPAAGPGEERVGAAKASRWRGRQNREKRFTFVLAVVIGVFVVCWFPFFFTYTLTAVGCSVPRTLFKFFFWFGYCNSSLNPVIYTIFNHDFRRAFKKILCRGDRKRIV

## COc1ccc(N(C)c2nc(C)nc3ccccc23)cc1 [MPC-6827, N-(4-methoxyphenyl)-N,2-dimethylquinazolin-4-amine]
α2A
  Ki: > 10 µM
NK
  Ki: > 10 µM
NT
  Ki: > 10 µM
5-HT2B
  Ki: > 10 µM
5-HT2A
  Ki: > 10 µM
H3, H4
  Ki: > 10 µM
Sigma1
  Ki: 0.426 µM
α2B
  Ki: > 10 µM
V1-2
  Ki: > 10 µM
β3
  Ki: > 10 µM
β2
  Ki: > 10 µM
EP
  Ki: > 10 µM
5-HT3
  Ki: > 10 µM
H2
  Ki: 0.155 µM
α1A-1C
  Ki: > 10 µM
β1
  Ki: > 10 µM
NMDA
  Ki: > 10 µM
mGluR
  Ki: > 10 µM
M
  Ki: > 10 µM
5-HT1B
  Ki: > 10 µM
I
  Ki: > 10 µM
D4
  Ki: > 10 µM
5-HT1A
  Ki: > 10 µM
5-HT2C
  Ki: > 10 µM
Variety of brain targets
  Ki: > 10 µM
D3
  Ki: > 10 µM
VMAT
  Ki: > 10 µM
KA
  Ki: > 10 µM
Adenosine
  Ki: > 10 µM
Na+ Channel
  Ki: > 10 µM
PKC
  Ki: > 10 µM
CB2
  Ki: > 10 µM
5-HT1D
  Ki: > 10 µM
Panel of kinases
  binding to a panel / variety of kinases: did not show binding
Ca++ channel
  Ki: > 10 µM
CB1
  Ki: > 10 µM
α2C
  Ki: > 10 µM
Microtubules (MTs)
  competition at microtubule binding sites: compete with paclitaxel and colchicine, but not with vinblastine
BZP
  Ki: > 10 µM
MOR
  Ki: 6.48 µM
5-HT1E
  Ki: > 10 µM
AMPA
  Ki: > 10 µM
GABA
  Ki: > 10 µM
D5
  Ki: > 10 µM
5-HT7
  Ki: > 10 µM
D1, D2
  Ki: > 10 µM

## COc1ccc(N(C)c2nc(C)nc3ccccc23)cc1 [[^11C]MPC-6827]
[1]
  uptake and specific binding: excellent uptake and specific binding
Rat brain
  BBB penetration and retention in brain: BBB penetration and excellent retention
[2]
  lower binding (brain activity) vs control mice: ~35%
Glioblastoma PDX cells
  uptake and specific binding: excellent uptake and specific binding
[3]
  uptake and specific binding: excellent uptake and specific binding
Brain MT [4]; microPET, nude mice, baseline
  brain uptake / BBB penetration: excellent brain uptake; also recorded: penetrates the blood brain barrier (BBB) with excellent retention
Brain MT [4]; pre-administration of 5 mg/kg MPC-6827 and 5 mg/kg HD-800 (i.v.)
  blocking of brain uptake: substantially blocked
MDA-MB-231 cells
  binding site on microtubules: binds to taxane and colchicine binding sites of microtubules
  incubation time to equilibrium binding: 60 min
MDA-MB-231 cells; with 5 μM MPC-6827
  specific binding: 95%
MDA-MB-231 cells; with 5 μM MTA HD-800
  specific binding: 95%
MDA-MB-231 cells; with 5 μM colchicine
  specific binding: 65%
MDA-MB-231 cells; with 5 μM docetaxel
  specific binding: 88%
MDA-MB-231 cells; with 5 μM paclitaxel
  specific binding: 78%
[5]
  stable in 5% ethanol-saline formulation: 4 h
[6]
  logP: 3.8
[7]
  lower binding of radiotracer in the whole brain vs wild type controls: 40%
Brain MT [8]; biodistribution, white male mice
  BBB penetration and brain retention: penetrated the BBB and was retained in the brain
Brain MT [8]; mice, 30 minutes, blocking with 5 mg/kg MPC-6827
  specific binding in brain: 70%
Brain MT [8]; mice, compared with established PET tracers
  brain SUV: higher than that of the established brain PET/periphery PET tracers
